From US10676468B2, “N-(3-heteroarylaryl)-4-arylarylcarboxamides and analogs as hedgehog pathway inhibitors and use thereof” (IMPACT Therapeutics, Inc., priority 2012, dated 2020)
Where a name gives a salt, the structure may show the parent alone.

Assays:
Format in all cases: cell-based, mouse
[1] = tested on: Hedgehog Signaling Pathway; experiment: SHH-induced differentiation of C3H10T1/2 cells into osteoblastic cells, intracellular alkaline phosphatase activity; settings: 10 nM SHH-N, 5 days, alkaline phosphatase activity (OD405), read-out: IC50 values of compounds that inhibit Hh pathway
How it was run: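 Mouse C3H10T1/2 cells were induced with 10 nM SHH-N alongside test compound (10 μM–10 nM) for 5 days at 37 °C. Cells were lysed in 0.2% Triton, and alkaline phosphatase activity was read at OD405 over 30 min at 37 °C with the background reading subtracted. IC50 came from a nonlinear fit against log concentration.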

[2] = tested on: Hedgehog Signaling Pathway; experiment: SAG-induced differentiation of C3H10T1/2 cells into osteoblastic cells, intracellular alkaline phosphatase activity; settings: 1 μM SAG, 5 days, alkaline phosphatase activity (OD405), read-out: IC50 values of compounds that inhibit Hh pathway
How it was run: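 Mouse C3H10T1/2 cells were induced with SAG and exposed to compound (10 μM to 1 nM) for 5 days at 37 °C. Cells were lysed in 0.2% Triton, and alkaline phosphatase activity was read as OD405 over 30 min at 37 °C in pH 9.8 substrate buffer. IC50 came from a non-linear fit of background-subtracted OD405 against log concentration.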

[3] = tested on: Hedgehog Signaling Pathway; experiment: Gli-Luc reporter gene cell assay in C3H10T1/2/Gli-Luc cells stimulated with Shh; settings: 30 nM Shh, luciferase activity (RLU), read-out: IC50 values of compounds that inhibit Hh pathway
How it was run: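 C3H10T1/2 cells stably carrying Gli-responsive luciferase were seeded overnight, then treated 24 h at 37 °C with compound (7-point dilution series, DMSO control) plus Shh (30 nM in added medium). Lysate luciferase RLU fitted against log concentration to derive IC50.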

[4] = Mus musculus, C3H 10T1/2, 120 h

| Structure (SMILES) | IC50 [1, 4] [nM] | IC50 [2, 4] [nM] | IC50 ([3]; Mus musculus, C3H 10T1/2, 24 h) [nM] | other results |
| --- | --- | --- | --- | --- |
| C[C@@H]1CN(c2ccc(C(=O)Nc3ccc(Cl)c(-c4nc5ccccc5[nH]4)c3)c(Cl)c2)C[C@H](C)N1C [Example 132, N-(3-(1H-benzo[d]imidazol-2-yl)-4-chlorophenyl)-2-chloro-4-((3S,5R)-3,4,5-trimethylpiperazin-1-yl)benzamide Dihydrochloride] | – | – | – | IC50 ([1]; Dihydrochloride): 0.53 nM; IC50 ([2]; Dihydrochloride): 28 nM; IC50 ([3]; 24 hours, Dihydrochloride): 0.74 nM |
| CCCc1cnc(-c2cc(NC(=O)c3ccc(N4C[C@@H](C)N(C)[C@@H](C)C4)cc3Cl)ccc2Cl)[nH]1 [Example 173] | – | – | – | IC50 [1]: 60 nM; IC50 [2]: 165 nM; IC50 ([3]; 24 hours): 15 nM |
| C[C@@H]1CN(c2ccc(C(=O)Nc3ccc(Cl)c(-c4nc5ccccc5[nH]4)c3)cn2)C[C@H](C)N1C [Example 104, N-(3-(1H-benzo[d]imidazol-2-yl)-4-chlorophenyl)-6-((3S,5R)-3,4,5-trimethylpiperazin-1-yl)nicotinamide] | 0.61 | 58 | 0.94 | – |
| Cc1cc(-c2ccc(C(F)(F)F)cc2)ccc1C(=O)Nc1ccc(Cl)c(-c2ncc(-c3ccccc3)[nH]2)c1 [Example 50, N-(3-(5-phenyl-1H-imidazol-2-yl)-4-chlorophenyl)-3-methyl-4′-(trifluoromethyl)biphenyl-4-carboxamide] | 7.9 | 125 | 10 | – |
| C[C@@H]1CN(c2cc(Cl)c(C(=O)Nc3ccc(Cl)c(-c4ncc(-c5cccs5)[nH]4)c3)cc2F)C[C@H](C)N1C [Example 157, N-(3-(5-(thiophen-2-yl)-1H-imidazol-2-yl)-4-chlorophenyl)-2-chloro-5-fluoro-4-((3S,5R)-3,4,5-trimethylpiperazin-1-yl)benzamide] | 0.15 | 10 | 0.23 | – |
| C[C@@H]1CN(c2ccc(C(=O)Nc3ccc(Cl)c(-c4nc5ccccc5[nH]4)c3)c(C(F)(F)F)c2)C[C@H](C)N1C [Example 119, N-(3-(1H-benzo[d]imidazol-2-yl)-4-chlorophenyl)-2-(trifluoromethyl)-4-((3S,5R)-3,4,5-trimethylpiperazin-1-yl)benzamide] | 0.76 | 39 | 0.45 | – |
| CCN1[C@H](C)CN(c2ccc(C(=O)Nc3ccc(Cl)c(-c4nc5ccccc5[nH]4)c3)c(C)c2)C[C@@H]1C [Example 100, N-(3-(1H-benzo[d]imidazol-2-yl)-4-chlorophenyl)-2-methyl-4-((3S,5R)-4-ethyl-3,5-dimethylpiperazin-1-yl)benzamide] | 2.3 | 33 | 0.58 | – |
| COc1ccc(-c2ccc(C(=O)Nc3ccc(Cl)c(-c4nc5ccccc5[nH]4)c3)c(C)c2)cn1 [Example 66, N-(3-(1H-benzo[d]imidazol-2-yl)-4-chlorophenyl)-2-methyl-4-(6-methoxypyridin-3-yl)benzamide] | 7.1 | 24 | 6.1 | – |
| C[C@@H]1CN(c2ccc(C(=O)Nc3ccc(Cl)c(-c4nc5ccccc5[nH]4)c3)cc2Cl)C[C@H](C)N1C [Example 120, N-(3-(1H-benzo[d]imidazol-2-yl)-4-chlorophenyl)-3-chloro-4-((3S,5R)-3,4,5-trimethylpiperazin-1-yl)benzamide] | 7.4 | 57 | 1.7 | – |
| Cc1nc(N2C[C@@H](C)O[C@@H](C)C2)ccc1C(=O)Nc1cnc(Cl)c(-c2nc3ccccc3[nH]2)c1 [Example 84, N-(5-(1H-benzo[d]imidazol-2-yl)-6-chloropyridin-3-yl)-2-methyl-6-((2S,6R)-2,6-dimethylmorpholino)nicotinamide] | 7.1 | 44 | 10 | – |
| Cc1cc(N2C[C@@H](C)N(C)[C@@H](C)C2)ccc1C(=O)Nc1ccc(Cl)c(-c2ncc(C(C)(C)C)[nH]2)c1 [Example 174, N-(3-(5-tert-butyl-1H-imidazol-2-yl)-4-chlorophenyl)-2-methyl-4-((3S,5R)-3,4,5-trimethylpiperazin-1-yl)benzamide] | 11 | 91 | 5.7 | – |
| Cc1c(C(=O)Nc2ccc(Cl)c(-c3nc4ccccc4[nH]3)c2)ccc(N2C[C@@H](C)N(C)[C@@H](C)C2)c1F [Example 122, N-(3-(1H-benzo[d]imidazol-2-yl)-4-chlorophenyl)-2-methyl-3-fluoro-4-((3S,5R)-3,4,5-trimethylpiperazin-1-yl)benzamide] | 0.52 | 29 | 0.39 | – |
